Structures are written as SMILES.

For data set [1], the system named is Oryza sativa. Description: Toxicity in Oryza sativa (rice) assessed as injury at 25 g/ha pre-emergence application under paddy conditions by crop safety assay. The data set is classed as organism-based. The following applies: in vivo, other.
In data set [2] the test system is Schoenoplectiella juncoides. The data set is described as follows: Herbicidal activity against Schoenoplectiella juncoides assessed as killing at 25 g/ha pre-emergence application under paddy conditions. Format: functional.
Data set [3] deals with Pontederia vaginalis. Description: Herbicidal activity against Monochoria vaginalis assessed as killing at 25 g/ha pre-emergence application under paddy conditions. The data set is classed as functional.
Data set [4] in a line: Herbicidal activity against broadleaf weed assessed as killing at 25 g/ha pre-emergence application under paddy conditions. Format: functional.
Data set [5] deals with Echinochloa oryzicola. The data set is described as follows: Herbicidal activity against Echinochloa oryzicola assessed as killing at 25 g/ha pre-emergence application under paddy conditions. The data set is classed as functional.
The test system of data set [6] is Zea mays. The data set is described as follows: Herbicidal activity against Zea mays (maize)assessed as killing at 500 g/ha pre-emergence application upland paddy conditions measured after 14 days. Format: functional.
Data set [7] has as its system Chenopodium album. Description: Herbicidal activity against Chenopodium album assessed as killing at 500 g/ha pre-emergence application upland paddy conditions measured after 14 days. Format: functional.
Data set [8] relates to Digitaria ciliaris. The data set is described as follows: Herbicidal activity against Digitaria ciliaris assessed as killing at 500 g/ha pre-emergence application upland paddy conditions measured after 14 days. Format: functional.
For data set [9], the system named is Echinochloa crus-galli. Description: Herbicidal activity against Echinochloa crus-galli (barnyard grass) assessed as killing at 500 g/ha pre-emergence application upland paddy conditions measured after 14 days. Format: functional.
The test system of data set [10] is Oryza sativa. Description: Toxicity in Oryza sativa (rice) assessed as injury at 50 g/ha pre-emergence application under paddy conditions by crop safety assay. The following applies: in vivo, other. Format: organism-based.
The test system of data set [11] is Schoenoplectiella juncoides. Description: Herbicidal activity against Schoenoplectiella juncoides assessed as killing at 50 g/ha pre-emergence application under paddy conditions. The data set is classed as functional.
Data set [12] concerns Pontederia vaginalis. The data set is described as follows: Herbicidal activity against Monochoria vaginalis assessed as killing at 50 g/ha pre-emergence application under paddy conditions. The data set is classed as functional.
The nature of data set [13]: Herbicidal activity against broadleaf weed assessed as killing at 50 g/ha pre-emergence application under paddy conditions. The data set is classed as functional.
For data set [14], the system named is Echinochloa oryzicola. Description: Herbicidal activity against Echinochloa oryzicola assessed as killing at 50 g/ha pre-emergence application under paddy conditions. Format: functional.
The nature of data set [15]: Octanol-water partition coefficient, log K of the compound. Format: physicochemical. The following applies: read-out: log K.
Data set [16] deals with Echinochloa oryzicola. The data set is described as follows: Herbicidal activity against Echinochloa oryzicola assessed as killing pre-emergence application under paddy conditions. The data set is classed as functional.
Data set [17] relates to Schoenoplectiella juncoides. The data set is described as follows: Herbicidal activity against Schoenoplectiella juncoides assessed as killing at 10 g/ha pre-emergence application under paddy conditions. Format: functional.
Data set [18] relates to Pontederia vaginalis. Description: Herbicidal activity against Monochoria vaginalis assessed as killing at 10 g/ha pre-emergence application under paddy conditions. The data set is classed as functional.
A short description of data set [19]: Herbicidal activity against broadleaf weed assessed as killing at 10 g/ha pre-emergence application under paddy conditions. The data set is classed as functional.
The subject of data set [20] is Echinochloa oryzicola. The data set is described as follows: Herbicidal activity against Echinochloa oryzicola assessed as killing at 10 g/ha pre-emergence application under paddy conditions. The data set is classed as functional.
Data set [21] has as its system Oryza sativa. The data set is described as follows: Toxicity in Oryza sativa (rice) assessed as injury at 10 g/ha pre-emergence application under paddy conditions by crop safety assay. The following applies: in vivo, other. The data set is classed as organism-based.

For the compound `CCN(CC)C(=O)n1cnc(S(=O)(=O)c2c(C)cc(C)cc2C)n1` [CAFENSTROLE], the Activity was 10% in data set [1]; 90% in data set [2]; 100% in data set [3]; 90% in data set [4]; 100% in data set [5]; 60% in [6]. The Activity is listed as 100% in data set [7]; 90% in data set [8]; 90% in [9]; 10% in data set [10]; 100% in [11]; 100% in data set [12]. For the same compound, the Activity in data set [13] and in data set [14] was 100% in each case.

Regarding `CCCOC(=O)C(CC(C)C)S(=O)(=O)c1ncn(C(=O)N(CC)CC)n1` (stereo not drawn), the Activity in [1] came to 10%; in data set [2] it was 70%; in [3], 60%; in data set [4], 60%; in data set [5], 90%; in data set [10], 10%. The Activity in [11], in data set [12], in data set [13] and in [14] was 100% in each case. The logP in data set [15] came to 0.9. Also, the “log(1/ED80)” value in data set [16] is 1.41.

As to `CCN(CC)C(=O)n1cnc(S(=O)(=O)[C@H](CC(C)C)C(=O)OC(C)C)n1`, the Activity in data set [1] turned out to be 10%; in data set [17], 10%; in data set [2] it was 40%; in [18], 10%; in data set [19], 40%; in data set [3], 40%. For the same compound, the Activity in [4] was determined as 60%; in data set [20] it was 50%; in data set [5] it was 90%; in data set [21] it was 10%.

Regarding `CCOC(=O)C(CC(C)C)S(=O)(=O)c1ncn(C(=O)N(CC)CC)n1` (stereo not drawn), the Activity is 10% in data set [1]; 30% in data set [2]; 40% in [3]; 50% in [4]; 90% in [5]; 10% in data set [10]. For the same compound, the Activity in data set [11] came out at 90%; in data set [12], 90%; in data set [13] it was 60%; in data set [14] it was 100%. Besides, the logP in data set [15] worked out at 0.78. For the same compound, in data set [16], the “log(1/ED80)” value is 1.27.

With `CCN(CC)C(=O)n1cnc(S(=O)(=O)C(CC(C)C)C(=O)OC)n1` (stereo not drawn), the Activity came out at 10% in [1]; 80% in data set [2]; 50% in [3]; 70% in [4]; 100% in data set [5]; 40% in data set [6]. In addition, the Activity in data set [7] came out at 100%; in [8], 100%; in data set [9] it was 100%; in [10], 10%; in [11], 100%; in data set [12], 100%. Moreover, the Activity in data set [13] and in [14] was 100% in each case. Further, the logP in data set [15] was 0.68. For the same compound, the “log(1/ED80)” value in [16] is reported as 1.26.

Turning to `CCN(CC)C(=O)n1cnc(S(=O)(=O)C(CC(C)C)C(=O)OC(C)(C)C)n1` (stereo not drawn), the Activity in data set [1] came out at 10%; in [2], 10%; in data set [3] it was 10%; in data set [4] it was 10%; in [5], 30%; in data set [10], 10%. The Activity turned out to be 10% in [11], 10% in data set [12], 10% in data set [13] and 90% in data set [14]. Moreover, the logP in data set [15] was determined as 0.99. For the same compound, in data set [16], the “log(1/ED80)” value worked out at 1.

With `CCN(CC)C(=O)n1cnc(S(=O)(=O)C(CC(C)C)C(=O)OC(C)C)n1` (stereo not drawn), the Activity in [1] worked out at 10%; in data set [17], 30%; in [2], 60%; in data set [18] it was 10%; in data set [19], 40%; in data set [3], 40%. Besides, the Activity was 90% in [4]; 40% in data set [20]; 90% in data set [5]; 10% in data set [10]; 100% in [11]; 100% in [12]. For the same compound, the values for the Activity in [13], in data set [14] and in data set [21] were 100%, 100% and 10%, respectively. For the same compound, the logP in [15] was 0.89. In addition, the “log(1/ED80)” value in data set [16] amounted to 1.41.

Turning to `CCCCOC(=O)C(CC(C)C)S(=O)(=O)c1ncn(C(=O)N(CC)CC)n1` (stereo not drawn), the Activity stood at 10% in data set [1]; 100% in data set [2]; 90% in data set [3]; 60% in data set [4]; 100% in data set [5]; 10% in data set [10]. For the same compound, the Activity in data set [11] is 100%; in [12] it was 100%; in [13], 80%; in [14], 100%. Besides, the logP in data set [15] was found to be 1.04. In addition, the “log(1/ED80)” value in data set [16] is 1.3.

As to `CCN(CC)C(=O)n1cnc(S(=O)(=O)C(CC(C)C)C(=O)OCC(C)C)n1` (stereo not drawn), the Activity was 10% in data set [1]; 30% in data set [2]; 40% in [3]; 30% in [4]; 40% in data set [5]; 10% in data set [10]. In addition, the Activity was determined as 100% in [11], 100% in [12], 60% in data set [13] and 80% in [14]. Also, the logP in [15] is 1.03. Besides, the “log(1/ED80)” value in data set [16] came to 0.91.

As to `C=C(C)CC(C(=O)OC)S(=O)(=O)c1ncn(C(=O)N(CC)CC)n1` (stereo not drawn), the logP in [15] turned out to be 0.63. In data set [16], the “log(1/ED80)” value turned out to be 0.95. For the same compound, the Activity is listed as 40% in [6]; 100% in data set [7]; 100% in [8]; 100% in [9]; 10% in data set [10]; 60% in data set [11]. Besides, the results for the Activity in data set [12], in [13] and in data set [14] were 100%, 90% and 90%, respectively.

As for `CCN(CC)C(=O)n1cnc(S(=O)(=O)C(CC(=O)OC)C(=O)OC)n1` (stereo not drawn), in data set [15], the logP was 0.45. Also, the “log(1/ED80)” value in data set [16] was -0.04. Further, the Activity came to 10% in [6]; 30% in data set [7]; 60% in data set [8]; 50% in [9]; 10% in data set [10]; 10% in data set [11]. In addition, the Activity in data set [12], in data set [13] and in data set [14] was 10% in each case.

On to `CCCCCOC(=O)C(CC(C)C)S(=O)(=O)c1ncn(C(=O)N(CC)CC)n1` (stereo not drawn), for which the Activity in [1] worked out at 10%; in [2], 10%; in data set [3] it was 10%; in data set [4] it was 30%; in data set [5], 40%; in data set [10], 10%. Moreover, the Activity turned out to be 40% in data set [11], 10% in data set [12], 60% in data set [13] and 40% in [14]. In addition, the logP in data set [15] was found to be 1.18. In addition, in data set [16], the “log(1/ED80)” value is reported as 0.62.

As for `CCN(CC)C(=O)n1cnc(S(=O)(=O)C(CCCC#N)C(=O)OC)n1` (stereo not drawn), the logP in data set [15] was determined as 0.41. In addition, in data set [16], the “log(1/ED80)” value was 0.05. Further, the Activity turned out to be 70% in data set [6]; 90% in data set [7]; 90% in data set [8]; 90% in [9]; 10% in [10]; 10% in data set [11]. In addition, the Activity in [12], in data set [13] and in data set [14] was 10% in each case.

On to `CCN(CC)C(=O)n1cnc(S(=O)(=O)C(CC2CC2)C(=O)OC)n1` (stereo not drawn), for which the logP in data set [15] was 0.6. For the same compound, in data set [16], the “log(1/ED80)” value is recorded as 0.95. Moreover, the Activity in data set [6] was determined as 60%; in data set [7] it was 100%; in data set [8], 90%; in data set [9], 90%; in [10], 10%; in data set [11], 60%. Besides, the Activity came to 100% in [12], 90% in [13] and 100% in [14].
